Results as given in US20260124214A1, “HETEROCYCLIC COMPOUNDS FOR USE IN THE TREATMENT OF CANCER” (ARTIOS PHARMA LIMITED, priority 2021, published 2026).
Structures can show the parent of a compound that is named as a salt.

Target: T1, Human Polθ polymerase domain (aa1820-2590) (Homo sapiens, UniProt O75417)
T1 construct: Human Polθ polymerase domain (aa1820-2590) was expressed in E. Coli; made in house; host or cells: E. coli
T1 sequence (O75417 1820-2590): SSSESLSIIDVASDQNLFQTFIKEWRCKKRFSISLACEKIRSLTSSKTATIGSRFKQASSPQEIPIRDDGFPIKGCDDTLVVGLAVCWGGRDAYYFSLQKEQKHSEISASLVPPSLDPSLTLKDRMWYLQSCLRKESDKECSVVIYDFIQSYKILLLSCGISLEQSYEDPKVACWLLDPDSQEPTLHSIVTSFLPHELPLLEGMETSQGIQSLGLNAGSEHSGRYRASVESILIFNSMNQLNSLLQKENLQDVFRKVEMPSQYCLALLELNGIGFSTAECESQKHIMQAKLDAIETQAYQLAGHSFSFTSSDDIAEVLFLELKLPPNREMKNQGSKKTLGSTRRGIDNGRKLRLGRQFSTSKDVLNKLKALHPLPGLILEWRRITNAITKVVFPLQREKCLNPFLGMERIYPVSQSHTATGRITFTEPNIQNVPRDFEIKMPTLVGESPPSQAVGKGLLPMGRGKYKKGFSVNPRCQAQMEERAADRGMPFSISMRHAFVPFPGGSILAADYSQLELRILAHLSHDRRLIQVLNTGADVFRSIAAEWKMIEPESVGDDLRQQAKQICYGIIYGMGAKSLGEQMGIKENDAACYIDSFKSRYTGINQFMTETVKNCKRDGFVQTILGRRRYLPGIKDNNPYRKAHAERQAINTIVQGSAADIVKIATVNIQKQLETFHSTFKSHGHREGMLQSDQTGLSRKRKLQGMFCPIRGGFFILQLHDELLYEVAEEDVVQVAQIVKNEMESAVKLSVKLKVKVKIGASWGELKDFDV
Assay: Polθ Polymerase Domain WT KI Assay (PicoGreen)
Format: biochemical
Conditions: 100 nM DNA substrate, 0.156 nM Polθ, initial rates vs inhibitor concentration
In short: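 E. coli-expressed human Polθ polymerase domain (aa1820-2590) on annealed DNA II Short/Long primer-template (1.2:1), in 25 mM Tris pH 7.5, NaCl, 5% glycerol, 0.01% Triton X-100, 0.1 mg/ml BSA, 1 mM DTT, 1% DMSO. EDTA-quenched timepoints to 180 min, PicoGreen fluorescence. Initial rates vs inhibitor concentration fitted four-parameter for KI.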

Cc1cc(C(F)(F)F)cc(N2C(=O)C[C@@H]3CN(C[C@@H](O)CN(C)C)c4c(Cl)cccc4N(C)C(=O)[C@H]32)n1 (racemic) [Example 132a, (3aR,11aS)-6-chloro-5-((S/R)-3-(dimethylamino)-2-hydroxypropyl)-10-methyl-1-(6-methyl-4-(trifluoromethyl)pyridin-2-yl)-1,3a,4,5,10,11a-hexahydro-2H-benzo[b]pyrrolo[2,3-f][1,4]diazocine-2,11(3H)-dione] was tested, and the Ki was 6.27 nM.

Molecule Cc1cc(C(F)(F)F)cc(N2C(=O)C[C@@H]3CN(CC(C)O)c4c(Cl)cccc4N(C)C(=O)[C@H]32)n1 (single isomer, unassigned) [Example 131b] has a Ki of 1.92 nM.

Cc1cc(C(F)(F)F)cc(N2C(=O)C[C@@H]3CN(CCN4CC[C@@H](C#N)C4)c4c(C)cccc4N(C)C(=O)[C@H]32)n1 [Example 71, (R)-1-(2-((3aR,11aS)-6,10-Dimethyl-1-(6-methyl-4-(trifluoromethyl)pyridin-2-yl)-2,11-dioxo-1,2,3,3a,4,10,11,11a-octahydro-5H-benzo[b]pyrrolo[2,3-f][1,4]diazocin-5-yl)ethyl)pyrrolidine-3-carbonitrile] gave a Ki of 1.15 nM.

For Cc1cc(C(F)(F)F)cc(N2C(=O)C[C@@H]3CN(CC(C)O)c4c(F)cccc4N(C)C(=O)[C@H]32)n1 (single isomer, unassigned) [Example 130b], the Ki was 10.2 nM.

With Cc1cc(C(F)(F)F)cc(N2C(=O)C[C@@H]3CN(CCN4CCC(O)CC4)c4c(Cl)cccc4N(C)C(=O)[C@H]32)n1 [Example 34, (3aR,11aS)-6-Chloro-5-(2-(4-hydroxypiperidin-1-yl)ethyl)-10-methyl-1-(6-methyl-4-(trifluoromethyl)pyridin-2-yl)-1,3a,4,5,10,11a-hexahydro-2H-benzo[b]pyrrolo[2,3-f][1,4]diazocine-2,11(3H)-dione] the Ki was 3.82 nM.

Molecule Cc1cc(C(F)(F)F)cc(N2C(=O)C[C@@H]3CN(CCN4C[C@@H]5C[C@H]4CN5C)c4c(C)cccc4N(C)C(=O)[C@H]32)n1 [Example 62, (3aR,11aS)-6,10-Dimethyl-5-(2-((1S,4S)-5-methyl-2,5-diazabicyclo[2.2.1]heptan-2-yl)ethyl)-1-(6-methyl-4-(trifluoromethyl)pyridin-2-yl)-1,3a,4,5,10,11a-hexahydro-2H-benzo[b]pyrrolo[2,3-f][1,4]diazocine-2,11(3H)-dione dihydrochloride] has a Ki of 1.01 nM.

Molecule Cc1cc(C(F)(F)F)cc(N2C(=O)C[C@@H]3CN(CC4CCN(CCO)CC4)c4c(C)cccc4N(C)C(=O)[C@H]32)n1 [Example 88, (3aR,11aS)-5-((1-(2-Hydroxyethyl)piperidin-4-yl)methyl)-6,10-dimethyl-1-(6-methyl-4-(trifluoromethyl)pyridin-2-yl)-1,3a,4,5,10,11a-hexahydro-2H-benzo[b]pyrrolo[2,3-f][1,4]diazocine-2,11(3H)-dione] has a Ki of 1.3 nM.

For Cc1cc(C(F)(F)F)cc(N2C(=O)C[C@@H]3CN(CCN4CC[C@@H](C#N)C4)c4c(Cl)cccc4N(C)C(=O)[C@H]32)n1 [Example 40, (R)-1-(2-((3aR,11aS)-6-Chloro-10-methyl-1-(6-methyl-4-(trifluoromethyl)pyridin-2-yl)-2,11-dioxo-1,2,3,3a,4,10,11,11a-octahydro-5H-benzo[b]pyrrolo[2,3-f][1,4]diazocin-5-yl)ethyl)pyrrolidine-3-carbonitrile], the Ki was 2.92 nM.

CCN1C(=O)[C@@H]2[C@H](CC(=O)N2c2cc(C(F)(F)F)cc(C)n2)CN(CCN2CCN(C)CC2)c2c(Cl)cccc21 [Example 146, (3aR,11aS)-6-Chloro-10-ethyl-1-(6-methyl-4-(trifluoromethyl)pyridin-2-yl)-5-(2-(4-methylpiperazin-1-yl)ethyl)-1,3a,4,5,10,11a-hexahydro-2H-benzo[b]pyrrolo[2,3-f][1,4]diazocine-2,11(3H)-dione] gave a Ki of 7.01 nM.

Cc1cc(C(F)(F)F)cc(N2C(=O)C[C@@H]3CN(C[C@@H]4CCNC4)c4c(Cl)cccc4N(C)C(=O)[C@H]32)n1 [Example 99, (3aR,11aS)-6-Chloro-10-methyl-1-(6-methyl-4-(trifluoromethyl)pyridin-2-yl)-5-(((R)-pyrrolidin-3-yl)methyl)-1,3a,4,5,10,11a-hexahydro-2H-benzo[b]pyrrolo[2,3-f][1,4]diazocine-2,11(3H)-dione hydrochloride] showed a Ki of 3.05 nM.

Cc1cc(C(F)(F)F)cc(N2C(=O)C[C@@H]3CN(CCN4CCS(=O)(=O)CC4)c4c(Cl)cccc4N(C)C(=O)[C@H]32)n1 [Example 37, (3aR,11aS)-6-Chloro-5-(2-(1,1-dioxidothiomorpholino)ethyl)-10-methyl-1-(6-methyl-4-(trifluoromethyl)pyridin-2-yl)-1,3a,4,5,10,11a-hexahydro-2H-benzo[b]pyrrolo[2,3-f][1,4]diazocine-2,11(3H)-dione] showed a Ki of 1.74 nM.

Molecule Cc1cc(C(F)(F)F)cc(N2C(=O)C[C@@H]3CN(CCN4CCN(C)[C@@H](C)C4)c4c(C)cccc4N(C)C(=O)[C@H]32)n1 [Example 46, (3aR,11aS)-5-(2-((S)-3,4-Dimethylpiperazin-1-yl)ethyl)-6,10-dimethyl-1-(6-methyl-4-(trifluoromethyl)pyridin-2-yl)-1,3a,4,5,10,11a-hexahydro-2H-benzo[b]pyrrolo[2,3-f][1,4]diazocine-2,11(3H)-dione dihydrochloride] has a Ki of 0.515 nM.

Cc1cc(C(F)(F)F)cc(N2C(=O)C[C@@H]3CN(CCN4CC[C@@H](C(=O)N(C)C)C4)c4c(Cl)cccc4N(C)C(=O)[C@H]32)n1 [Example 42, (R)-1-(2-((3aR,11aS)-6-Chloro-10-methyl-1-(6-methyl-4-(trifluoromethyl)pyridin-2-yl)-2,11-dioxo-1,2,3,3a,4,10,11,11a-octahydro-5H-benzo[b]pyrrolo[2,3-f][1,4]diazocin-5-yl)ethyl)-N,N-dimethylpyrrolidine-3-carboxamide] was tested, and the Ki was 4.96 nM.

Cc1cc(C(F)(F)F)cc(N2C(=O)C[C@@H]3CN(Cc4ccncc4)c4c(C)cccc4N(C)C(=O)[C@H]32)n1 [Example 114, (3aR,11aS)-6,10-Dimethyl-1-(6-methyl-4-(trifluoromethyl)pyridin-2-yl)-5-(pyridin-4-ylmethyl)-1,3a,4,5,10,11a-hexahydro-2H-benzo[b]pyrrolo[2,3-f][1,4]diazocine-2,11(3H)-dione] was tested, and the Ki was 1.64 nM.

With Cc1cc(C(F)(F)F)cc(N2C(=O)C[C@@H]3CN(CCN4CCN(C)[C@H](C)C4)c4c(C)cccc4N(C)C(=O)[C@H]32)n1 [Example 47, (3aR,11aS)-5-(2-((R)-3,4-Dimethylpiperazin-1-yl)ethyl)-6,10-dimethyl-1-(6-methyl-4-(trifluoromethyl)pyridin-2-yl)-1,3a,4,5,10,11a-hexahydro-2H-benzo[b]pyrrolo[2,3-f][1,4]diazocine-2,11(3H)-dione dihydrochloride] the Ki was 0.605 nM.

With Cc1cc(C(F)(F)F)cc(N2C(=O)C[C@@H]3CN(CCN4CCOCC4)c4c(C)cccc4N(C)C(=O)[C@H]32)n1 [Example 44, (3aR,11aS)-6,10-Dimethyl-1-(6-methyl-4-(trifluoromethyl)pyridin-2-yl)-5-(2-morpholinoethyl)-1,3a,4,5,10,11a-hexahydro-2H-benzo[b]pyrrolo[2,3-f][1,4]diazocine-2,11(3H)-dione] the Ki was 0.349 nM.

Molecule Cc1cc(C(F)(F)F)cc(N2C(=O)C[C@@H]3CN(Cc4nnc5n4CCNC5)c4c(Cl)cccc4N(C)C(=O)[C@H]32)n1 [Example 101, (3aR,11aS)-6-Chloro-10-methyl-1-(6-methyl-4-(trifluoromethyl)pyridin-2-yl)-5-((5,6,7,8-tetrahydro-[1,2,4]triazolo[4,3-a]pyrazin-3-yl)methyl)-1,3a,4,5,10,11a-hexahydro-2H-benzo[b]pyrrolo[2,3-f][1,4]diazocine-2,11(3H)-dione hydrochloride] has a Ki of 3.73 nM.

Cc1cc(C(F)(F)F)cc(N2C(=O)C[C@@H]3CN(CC4CCNCC4)c4c(Cl)cccc4N(C)C(=O)[C@H]32)n1 [Example 78, (3aR,11aS)-6-Chloro-10-methyl-1-(6-methyl-4-(trifluoromethyl)pyridin-2-yl)-5-(piperidin-4-ylmethyl)-1,3a,4,5,10,11a-hexahydro-2H-benzo[b]pyrrolo[2,3-f][1,4]diazocine-2,11(3H)-dione] was tested, and the Ki was 1.1 nM.

Cc1cc(C(F)(F)F)cc(N2C(=O)C[C@@H]3CN(CC4COCCN4)c4c(F)cccc4N(C)C(=O)[C@H]32)n1 (single isomer, unassigned) [Example 106a] was tested, and the Ki was 13.7 nM.
